From patent publication US8470871B2, “Ligands that modulate RAR receptors” (Galderma Research & Development, priority 2004, dated 2013)
Structures can show the parent of a compound that is named as a salt.

Key:
RARbeta = target: T1, RARbeta (Homo sapiens, UniProt P10826); assay: Transactivation test (Kdapp), RARbeta; assay type: cell-based; conditions: HeLa stable transfectants, luciferase reporter, crossed curves against reference agonist, Schild regression
T1 sequence (P10826 183-417 limits assumed): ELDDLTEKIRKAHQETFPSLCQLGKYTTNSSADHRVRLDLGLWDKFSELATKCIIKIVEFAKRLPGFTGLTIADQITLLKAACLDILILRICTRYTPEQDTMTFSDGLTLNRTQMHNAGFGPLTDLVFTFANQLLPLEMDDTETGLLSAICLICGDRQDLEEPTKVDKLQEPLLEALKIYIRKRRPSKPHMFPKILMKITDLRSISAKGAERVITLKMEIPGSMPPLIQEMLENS
Experimental: (§1) The activation of receptors with an agonist (activator) in HeLa cells leads to the expression of a reporter gene, luciferase, which, in the presence of a substrate, generates light. The activation of the receptors may thus be measured by quantifying the luminescence produced after incubating the cells in the presence of a reference agonist. The inhibitory products displace the agonist from its site, thus preventing activation of the receptor. The activity is measured by quantifying the reduction in light produced. This measurement makes it possible to determine the inhibitory activity of the compounds according to the invention.
(§2) In this study, a constant is determined which is the affinity of the molecule for the receptor. Since this value can fluctuate depending on the basal activity and the expression of the receptor, it is referred to as the Kd apparent (KdApp).
(§3) To determine this constant, “crossed curves” of the test product against a reference agonist, 4-[2-(5,5,8,8-tetramethyl-5,6,7,8-tetrahydro-2-naphthyl)propenyl]benzoic acid, are performed in 96-well plates. The test product is used at 10 concentrations and the reference agonist at 7 concentrations. In each well, the cells are in contact with a concentration of the test product and a concentration of the reference agonist, 4-[2-(5,5,8,8-tetramethyl-5,6,7,8-tetrahydro-2-naphthyl)propenyl]benzoic acid. Measurements are also taken for the total agonist (4-[2-(5,5,8,8-tetramethyl-5,6,7,8-tetrahydro-2-naphthyl)propenyl]benzoic acid) and inverse agonist, 4-{(E)-3-[4-(4-tert-butylphenyl)-5,5,8,8-tetramethyl-5,6,7,8-tetrahydro-2-naphthyl]-3-oxopropenyl}benzoic acid, controls.
(§4) The HeLa cell lines used are stable transfectants containing the plasmids ERE-βGlob-Luc-SV-Neo (reporter gene) and RAR (α, β, γ) ER-DBD-puro. These cells are inoculated into 96-well plates at a rate of 10,000 cells per well in 100 μl of DMEM medium without phenol red, and supplemented with 10% defatted calf serum. The plates are then incubated at 37° C. and 7% CO2 for 4 hours.
(§5) The plates are then incubated for 18 hours at 37° C. and 7% CO2.
(§6) The culture medium is removed by turning over and 100 μl of a 1:1 PBS/luciferine mixture is added to each well. After 5 minutes, the plates are read using the luminescence reader.

RARalpha = target: T2, RARalpha (Homo sapiens, UniProt P10276); assay: Transactivation test (Kdapp), RARalpha; assay type: cell-based; conditions: HeLa stable transfectants, luciferase reporter, crossed curves against reference agonist, Schild regression
T2 sequence (P10276 183-417 limits assumed): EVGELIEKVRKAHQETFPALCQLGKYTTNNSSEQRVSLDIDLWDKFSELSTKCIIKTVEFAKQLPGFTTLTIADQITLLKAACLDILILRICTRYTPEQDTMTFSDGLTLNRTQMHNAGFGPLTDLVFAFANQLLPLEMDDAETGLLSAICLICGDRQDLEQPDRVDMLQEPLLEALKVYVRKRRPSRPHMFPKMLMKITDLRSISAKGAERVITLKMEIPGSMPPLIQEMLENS
Experimental: as §1, §2, §3, §4, §5, §6

SMILES	Kd (RARbeta)	Kd (RARalpha)	Kd (RARbeta; hydrochloride)	Kd (RARalpha; hydrochloride)
CCNc1ccc(-c2cc(-c3ccc(C(=O)O)cc3)ccc2OCCCO)cc1C(C)(C)C [Example 54, 3″-tert-butyl-4″-ethylamino-4′-(3-hydroxypropoxy)-[1,1′;3′,1″]terphenyl-4-carboxylic acid]	4 nM	8 nM		
CCN(CC)c1ccc(-c2cc(-c3ccc(C(=O)O)cc3)ccc2OCCCO)cc1C [Example 17, 4″-diethylamino-4′-(3-hydroxypropoxy)-3″-methyl[1,1′;3′,1″]terphenyl-4-carboxylic acid]	8 nM	250 nM		
CCN(C(C)=O)c1ccc(-c2cc(-c3ccc(C(=O)O)cc3)ccc2OCCCCO)cc1C(C)(C)C [Example 5, 4″-(acetylethylamino)-3″-tert-butyl-4′-(4-hydroxybutoxy)-[1,1′;3′,1″]terphenyl-4-carboxylic acid]	8 nM	8 nM		
CCN(CC)c1ccc(-c2cc(-c3ccc(C(=O)O)cc3)ccc2CCCO)cc1C(C)(C)C [Example 52, [3″-tert-butyl-4-carboxy-4′-(3-hydroxypropyl)-[1,1′;3′,1″]terphenyl-4″-yl]diethylamine hydrochloride]			2 nM	30 nM
CCN(CC)c1ccc(-c2cc(-c3ccc(C(=O)O)cc3)ccc2CCCO)cc1C(C)(C)C [Example 33, 3″-tert-butyl-4″-diethylamino-4′-(3-hydroxypropyl)-[1,1′;3′,1″]terphenyl-4-carboxylic acid]	8 nM	60 nM		
CCN(CC)c1ccc(-c2cc(-c3ccc(C(=O)O)cc3)ccc2CC(O)CO)cc1C(C)(C)C (centres unmarked) [Example 35, 3″-tert-butyl-4″-diethylamino-4′-(2,3-dihydroxypropyl)-[1,1′;3′,1″]terphenyl-4-carboxylic acid]	500 nM	4000 nM		
CCc1cc(-c2cc(-c3ccc(C(=O)O)cc3)ccc2OCCO)ccc1N(CC)CC [Example 13, 4″-diethylamino-3″-ethyl-4′-(2-hydroxyethoxy)-[1,1′;3′,1″]terphenyl-4-carboxylic acid]	4 nM	500 nM		
CCN(C(C)=O)c1ccc(-c2cc(-c3ccc(C(=O)O)cc3)ccc2CCCNC2CC2)cc1C(C)(C)C [Example 47, 4″-(acetylethylamino)-3″-tert-butyl-4′(3-cyclopropylaminopropyl)[1,1′;3′,1″]terphenyl-4-carboxylic acid]	250 nM			
CCN(C(C)=O)c1ccc(-c2cc(-c3ccc(C(=O)O)cc3)ccc2CCCO)cc1C(C)(C)C [Example 37, 4″-(acetylethylamino)-3″-tert-butyl-4′-(3-hydroxypropyl)-[1,1′;3′,1″]terphenyl-4-carboxylic acid]	120 nM	250 nM		
